target: Human DGAT2 (hDGAT2) (Homo sapiens (Human), UniProt Q96PD7); assay: In vitro DGAT2 assay, IC50 determination with hDGAT2 membrane fraction; assay type: biochemical; conditions: geometric mean; background for complete inhibition of DGAT2 obtained with 50 μM (1R,2R)-2-({3′-Fluoro-4′-[(6-fluoro-1,3-benzothiazol-2-yl)amino]-1,1′-biphenyl-4-yl}carbonyl)cyclopentanecarboxylic acid; read-out: DGAT2 IC50
Summary of the method: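 CHAPS-solubilized membrane fraction of FLAG-tagged hDGAT2 from baculovirus-infected SF9 cells (0.01 mg/mL) in 100 mM Hepes-NaOH pH 7.4, 20 mM MgCl2, 200 nM methyl arachidonyl fluorophosphonate; compounds pre-incubated 20 min with 0.04% BSA. Reaction 40 min at room temperature, stopped with H3PO4. [^14C]tridecanoylglycerol in organic phase counted; 11-point geometric mean IC50.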

Chain of Human DGAT2 (hDGAT2) (Q96PD7 whole entry): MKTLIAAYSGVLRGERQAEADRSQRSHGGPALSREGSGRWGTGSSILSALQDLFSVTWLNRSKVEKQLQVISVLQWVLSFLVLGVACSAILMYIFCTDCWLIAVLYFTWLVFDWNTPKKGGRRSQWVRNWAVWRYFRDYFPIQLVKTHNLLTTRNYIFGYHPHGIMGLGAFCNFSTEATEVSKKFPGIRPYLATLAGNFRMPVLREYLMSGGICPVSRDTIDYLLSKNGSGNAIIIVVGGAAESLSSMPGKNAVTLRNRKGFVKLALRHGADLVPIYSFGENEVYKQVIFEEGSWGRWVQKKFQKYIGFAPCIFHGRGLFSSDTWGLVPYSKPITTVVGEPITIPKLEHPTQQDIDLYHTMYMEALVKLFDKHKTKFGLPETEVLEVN

In order of falling IC50:
1. C[C@H]1CC[C@@H](C(=O)N2CCCC2)CN1c1ccc2nc(C3(n4cc(Cl)cn4)CC3)[nH]c2n1 [Example 216, ((3R,6S)-1-(2-(1-(4-Chloro-1H-pyrazol-1-yl)cyclopropyl)-3H-imidazo[4,5-b]pyridin-5-yl)-6-methylpiperidin-3-yl)(pyrrolidin-1-yl)methanone]  9200 nM
2. CCN(CC)C(=O)c1nc2ccc(N3CCC[C@@H](C(=O)N4CCCC4)C3)nc2[nH]1 [Example 129, (R)—N,N-Diethyl-5-(3-(pyrrolidine-1-carbonyl)piperidin-1-yl)-3H-imidazo[4,5-b]pyridine-2-carboxamide]  4540 nM
3. Cn1ncnc1C1(c2nc3ccc(N4CCC[C@@H](C(=O)N5CCCC5)C4)nc3[nH]2)CC1 [Example 223, (R)-(1-(2-(1-(1-Methyl-1H-1,2,4-triazol-5-yl)cyclopropyl)-3H-imidazo[4,5-b]pyridin-5-yl)piperidin-3-yl)(pyrrolidin-1-yl)methanone]  1370 nM
4. O=C([C@@H]1CCCN(c2ccc3nc(C4(N5CCOCC5=O)CC4)[nH]c3n2)C1)N1CCCC1 [Example 137, (R)-4-(1-(5-(3-(Pyrrolidine-1-carbonyl)piperidin-1-yl)-3H-imidazo[4,5-b]pyridin-2-yl)cyclopropyl)morpholin-3-one]  1280 nM
5. CN(C)C(=O)[C@@H]1CCCN(c2ccc3nc(-c4cccc(OC(F)F)c4)[nH]c3n2)C1 [Example 60, (R)-1-(2-(3-(Difluoromethoxy)phenyl)-3H-imidazo[4,5-b]pyridin-5-yl)-N,N-dimethylpiperidine-3-carboxamide]  892 nM
6. O=C([C@@H]1CCCN(c2ccc3nc(C4(c5ncccn5)CC4)[nH]c3n2)C1)N1CCCC1 [Example 204, (R)-(1-(2-(1-(Pyrimidin-2-yl)cyclopropyl)-3H-imidazo[4,5-b]pyridin-5-yl)piperidin-3-yl)(pyrrolidin-1-yl)methanone]  656 nM
7. C[C@@H]1CCN(c2ccc3nc(-c4cccc(OC(F)F)c4)[nH]c3n2)C[C@@H]1C(=O)N(C)C [Example 180, (3R,4R)-1-(2-(3-(Difluoromethoxy)phenyl)-3H-imidazo[4,5-b]pyridin-5-yl)-N,N,4-trimethylpiperidine-3-carboxamide]  434 nM
8. CC(C)c1cccc(-c2nc3ccc(N4CCC[C@@H](C(=O)N5CCCC5)C4)nc3[nH]2)c1O [Example 23, (R)-(1-(2-(2-Hydroxy-3-isopropylphenyl)-3H-imidazo[4,5-b]pyridin-5-yl)piperidin-3-yl)(pyrrolidin-1-yl)methanone]  432 nM
9. CC(C)(c1ccccc1)c1nc2ccc(N3CCC[C@@H](C(=O)N4CCCC4)C3)nc2[nH]1 [Example 22, (R)-(1-(2-(2-Phenylpropan-2-yl)-3H-imidazo[4,5-b]pyridin-5-yl)piperidin-3-yl)(pyrrolidin-1-yl)methanone]  357 nM
10. C[C@H]1CCCN1C(=O)[C@@H]1CCCN(c2ccc3nc(C4(n5cc(Cl)cn5)CC4)[nH]c3n2)C1 [Example 202, ((R)-1-(2-(1-(4-Chloro-1H-pyrazol-1-yl)cyclopropyl)-3H-imidazo[4,5-b]pyridin-5-yl)piperidin-3-yl)((S)-2-methylpyrrolidin-1-yl)methanone]  321 nM
11. CN(CC1CC1)C(=O)[C@@H]1CCCN(c2ccc3nc(-c4ccnc(C5CC5)n4)[nH]c3n2)C1 [Example 221, (R)—N-(Cyclopropylmethyl)-1-(2-(2-cyclopropylpyrimidin-4-yl)-3H-imidazo[4,5-b]pyridin-5-yl)-N-methylpiperidine-3-carboxamide]  290 nM
12. CCN(C)C(=O)[C@@H]1CCCN(c2ccc3nc(-c4ccnc(C5CC5)n4)[nH]c3n2)C1 [Example 185, (R)-1-(2-(2-Cyclopropylpyrimidin-4-yl)-3H-imidazo[4,5-b]pyridin-5-yl)-N-ethyl-N-methylpiperidine-3-carboxamide]  231 nM
13. Cn1cc(Cl)c(-c2nc3ccc(N4CCC[C@@H](C(=O)N5CCCC5)C4)nc3[nH]2)n1 [Example 20, (R)-(1-(2-(4-Chloro-1-methyl-1H-pyrazol-3-yl)-3H-imidazo[4,5-b]pyridin-5-yl)piperidin-3-yl)(pyrrolidin-1-yl)methanone]  221 nM
14. O=C([C@@H]1CCCN(c2ccc3nc(C4(c5cnccn5)CC4)[nH]c3n2)C1)N1CCCC1 [Example 203, (R)-(1-(2-(1-(Pyrazin-2-yl)cyclopropyl)-3H-imidazo[4,5-b]pyridin-5-yl)piperidin-3-yl)(pyrrolidin-1-yl)methanone]  176 nM
15. O=C([C@H]1CN(c2ccc3nc(-c4cccc(C5CC5)n4)[nH]c3n2)CCO1)N1CCOCC1 [Example 186, (R)-(4-(2-(6-Cyclopropylpyridin-2-yl)-3H-imidazo[4,5-b]pyridin-5-yl)morpholin-2-yl)(morpholino)methanone]  162 nM
16. c1cc(-c2nc3ccc(N4CCC[C@H](c5nnc6n5CCC6)C4)nc3[nH]2)nc(C2CC2)c1 [Example 171, (S)-2-(6-cyclopropylpyridin-2-yl)-5-(3-(6,7-dihydro-5H-pyrrolo[2,1-c][1,2,4]triazol-3-yl)piperidin-1-yl)-3H-imidazo[4,5-b]pyridine]  161 nM
17. Cc1cnn(C2(c3nc4ccc(N5CCC[C@@H](C(=O)N6CCCC6)C5)nc4[nH]3)CC2)c1 [Example 72]  104 nM
18. Cc1cc(C2(c3nc4ccc(N5CCC[C@@H](C(=O)N6CCCC6)C5)nc4[nH]3)CC2)no1 [Example 87, (R)-(1-(2-(1-(5-Methylisoxazol-3-yl)cyclopropyl)-3H-imidazo[4,5-b]pyridin-5-yl)piperidin-3-yl)(pyrrolidin-1-yl)methanone]  102 nM
19. COc1cccc(C2(c3nc4ccc(N5CCC[C@@H](C(=O)N6CCCC6)C5)nc4[nH]3)CC2)c1 [Example 102, (R)-(1-(2-(1-(3-Methoxyphenyl)cyclopropyl)-3H-imidazo[4,5-b]pyridin-5-yl)piperidin-3-yl)(pyrrolidin-1-yl)methanone]  99.6 nM
20. NS(=O)(=O)c1cccc(-c2nc3ccc(N4CCC[C@@H](C(=O)N5CCCC5)C4)nc3[nH]2)c1 [Example 114, (R)-3-(5-(3-(Pyrrolidine-1-carbonyl)piperidin-1-yl)-3H-imidazo[4,5-b]pyridin-2-yl)benzenesulfonamide]  90.3 nM
21. Cc1ccc(C2(c3nc4ccc(N5CCC[C@@H](C(=O)N6CCCC6)C5)nc4[nH]3)CC2)cc1 [Example 103, (R)-Pyrrolidin-1-yl(1-(2-(1-(p-tolyl)cyclopropyl)-3H-imidazo[4,5-b]pyridin-5-yl)piperidin-3-yl)methanone]  73.7 nM
22. C[C@@H]1CCCN1C(=O)[C@@H]1CCCN(c2ccc3nc(-c4ccnc(C5CC5)n4)[nH]c3n2)C1 [Example 67, ((R)-1-(2-(2-Cyclopropylpyrimidin-4-yl)-3H-imidazo[4,5-b]pyridin-5-yl)piperidin-3-yl)((R)-2-methylpyrrolidin-1-yl)methanone]  58.2 nM
23. O=C([C@@H]1CCCN(c2ccc3nc(-c4ccnc(C5CC5)n4)[nH]c3n2)C1)N1CCC(F)(F)C1 [Example 131, (R)-(1-(2-(2-Cyclopropylpyrimidin-4-yl)-3H-imidazo[4,5-b]pyridin-5-yl)piperidin-3-yl)(3,3-difluoropyrrolidin-1-yl)methanone]  34.4 nM
24. O=C([C@@H]1CCCN(c2ccc3nc(-c4cccc(C(F)F)n4)[nH]c3n2)C1)N1CCCC1 [Example 122, (R)-(1-(2-(6-(Difluoromethyl)pyridin-2-yl)-3H-imidazo[4,5-b]pyridin-5-yl)piperidin-3-yl)(pyrrolidin-1-yl)methanone]  10.9 nM
25. O=C([C@@H]1CCCN(c2ccc3nc(-c4cccc(C(F)(F)F)n4)[nH]c3n2)C1)N1CCCC1 [Example 112, (R)-Pyrrolidin-1-yl(1-(2-(6-(trifluoromethyl)pyridin-2-yl)-3H-imidazo[4,5-b]pyridin-5-yl)piperidin-3-yl)methanone]  9.23 nM
26. Cc1cccc(-c2nc3ccc(N4CCC[C@@H](C(=O)N5CCCC5)C4)nc3[nH]2)c1 [Example 5, (R)-Pyrrolidin-1-yl(1-(2-m-tolyl-3H-imidazo[4,5-b]pyridin-5-yl)piperidin-3-yl)methanone]  8.24 nM

same assay, conditions: read-out: DGAT2 IC50

In order of rising IC50:
1. O=C([C@@H]1CCCN(c2ccc3nc(-c4cccc(Cl)c4)[nH]c3n2)C1)N1CCOCC1 [Example 154, (R)-(1-(2-(3-Chlorophenyl)-3H-imidazo[4,5-b]pyridin-5-yl)piperidin-3-yl)(morpholino)methanone]  40.5 nM
2. O=C([C@@H]1CCCN(c2ccc3nc(-c4cccc(C5CC5)n4)[nH]c3n2)C1)N1CCOCC1 [Example 153, (R)-(1-(2-(6-Cyclopropylpyridin-2-yl)-3H-imidazo[4,5-b]pyridin-5-yl)piperidin-3-yl)(morpholino)methanone]  48.1 nM
3. Clc1cccc(-c2nc3ccc(N4CCO[C@@H](c5ccccn5)C4)nc3[nH]2)c1 [Example 152, (R)-4-(2-(3-chlorophenyl)-3H-imidazo[4,5-b]pyridin-5-yl)-2-(pyridin-2-yl)morpholine]  285 nM

Source: patent US9296745B2, “Diacylglycerol acyltransferase 2 inhibitors” (Pfizer Inc., priority 2012, dated 2016)
